Assays:
COX-1 = target: T1, COX-1 (Rattus norvegicus, UniProt Q63921); assay: Anti-inflammatory assay, LPS-activated rat blood neutrophils, TXB2 ELISA (COX-1 marker); format: cell-based; details: 3 hours
T1 construct: endogenous in cells
T1 sequence (Q63921 27-602): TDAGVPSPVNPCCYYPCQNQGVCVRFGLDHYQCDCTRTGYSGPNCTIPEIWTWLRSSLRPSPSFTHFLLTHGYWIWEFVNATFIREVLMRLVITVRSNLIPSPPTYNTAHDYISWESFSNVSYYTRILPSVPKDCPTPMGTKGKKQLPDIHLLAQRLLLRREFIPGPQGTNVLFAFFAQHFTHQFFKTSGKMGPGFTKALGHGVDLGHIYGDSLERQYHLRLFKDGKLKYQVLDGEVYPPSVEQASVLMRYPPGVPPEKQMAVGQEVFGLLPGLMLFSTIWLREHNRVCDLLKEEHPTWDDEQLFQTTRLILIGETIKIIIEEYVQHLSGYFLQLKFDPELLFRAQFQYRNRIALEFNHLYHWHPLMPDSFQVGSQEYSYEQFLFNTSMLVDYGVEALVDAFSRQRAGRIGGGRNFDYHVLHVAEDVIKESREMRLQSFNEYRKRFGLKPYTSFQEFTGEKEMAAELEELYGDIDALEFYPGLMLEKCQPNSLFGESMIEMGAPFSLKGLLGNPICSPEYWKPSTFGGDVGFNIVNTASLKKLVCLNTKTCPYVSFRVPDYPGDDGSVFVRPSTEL
Procedure: (§1) The proliferation of cancers can follow an inflammatory pathway. […] This study was performed using LPS-activated neutrophils from rat blood to determine the inhibition of the inflammatory mediators cyclooxygenase enzymes COX I and COX II.
(§2) Anti-inflammatory assays were carried out as follows. Neutrophils from rat blood were cultured in the presence of the test sample or positive control before being activated into an inflammatory response through the use of lipopolysaccharide (LPS). The incubation period before addition of LPS was 20 minutes. The cell culture supernatants were then tested by ELISA for the presence of the cyclooxygenase COX-1 and COX-2 marker compounds thromboxane TXB2 and prostaglandin PGE2, respectively. […] The test samples were used at 50 μg and 200 μg of solids/ml, and were tested in triplicate. The incubation period for TXB2 and PGE2 was 3 hours.

COX-2 = target: T2, COX-2 (Rattus norvegicus, UniProt P35355); assay: Anti-inflammatory assay, LPS-activated rat blood neutrophils, PGE2 ELISA (COX-2 marker); format: cell-based; details: 3 hours
T2 construct: endogenous in cells
T2 sequence (P35355 18-604): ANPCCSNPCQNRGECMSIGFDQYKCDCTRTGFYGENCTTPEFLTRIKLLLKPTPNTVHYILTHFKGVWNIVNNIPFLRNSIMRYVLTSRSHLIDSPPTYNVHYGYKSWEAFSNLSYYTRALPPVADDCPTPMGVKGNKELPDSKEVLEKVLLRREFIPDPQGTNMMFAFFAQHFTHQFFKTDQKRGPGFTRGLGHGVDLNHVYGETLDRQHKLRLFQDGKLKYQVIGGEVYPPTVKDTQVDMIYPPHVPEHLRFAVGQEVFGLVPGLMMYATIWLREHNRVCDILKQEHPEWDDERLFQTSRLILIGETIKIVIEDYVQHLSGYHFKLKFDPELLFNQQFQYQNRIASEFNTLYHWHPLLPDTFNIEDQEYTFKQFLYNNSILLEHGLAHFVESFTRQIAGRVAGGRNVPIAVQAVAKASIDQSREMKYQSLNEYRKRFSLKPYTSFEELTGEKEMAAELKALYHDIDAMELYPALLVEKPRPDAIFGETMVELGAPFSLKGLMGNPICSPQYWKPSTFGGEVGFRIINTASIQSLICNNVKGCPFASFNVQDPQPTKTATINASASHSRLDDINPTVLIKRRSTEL
Procedure: as §1, §2

OC[C@H]1O[C@@H]2O[C@H]3[C@H](O)[C@@H](O)[C@@H](O[C@H]4[C@H](O)[C@@H](O)[C@@H](O[C@H]5[C@H](O)[C@@H](O)[C@@H](O[C@H]6[C@H](O)[C@@H](O)[C@@H](O[C@H]7[C@H](O)[C@@H](O)[C@@H](O[C@H]8[C@H](O)[C@@H](O)[C@@H](O[C@H]9[C@H](O)[C@@H](O)[C@@H](O[C@H]1[C@H](O)[C@H]2O)O[C@@H]9CO)O[C@@H]8CO)O[C@@H]7CO)O[C@@H]6CO)O[C@@H]5CO)O[C@@H]4CO)O[C@@H]3CO [IFS#11, Gamma cyclodextrin]
COX (I), 50 μg/ml (COX-1; 50 μg of solids/ml): S, NS | COX (I), 200 μg/ml (COX-1; 200 μg of solids/ml): 2.3, NS | COX (II), 50 μg/ml (COX-2; 50 μg of solids/ml): 10.1, NS | COX (II), 200 μg/ml (COX-2; 200 μg of solids/ml): S, NS

From US20170209499A1, “Propolis and Extracts Thereof for the Treatment of Skin Cancers and Improvement of Skin Health” (Manuka Health New Zealand Limited, priority 2014, published 2017)
